Laboratory results taken from patent US9278941B2, “Azole derivative and uses thereof” (Kureha Corporation, priority 2011, dated 2016).

Tests used:
wheat leaf rust = assay: Rust control effect on wheat, foliar spray treatment; assay type: in vivo; settings: wettable powder foliar spray 1,000 L/ha, twelve days after inoculation
[1] = system: Wheat leaf blight (Septoria tritici); assay: Antifungal test against wheat leaf blight (PDA plate); settings: 19 days at 25° C.
Experimental: Wheat leaf blight (Septoria tritici) cultured beforehand in a medium plate was punched out with a 4 mm-diameter cork borer, and inoculated in the plate media containing the agent. After inoculation, they were cultured for 19 days at 25° C., and the growth of the fungus was determined by the diameter of the growth. The growth rate of the fungus in the plate media containing the agent was compared to the growth rate of the fungus in the plate medium not containing the agent, and the filamentous fungi inhibition rate was determined using the following equation. In the equation, R is the filamentous fungi inhibition rate (%), dc is the diameter of the fungal growth in the untreated plate media, and dt is the diameter of the fungal growth in the treated plate media. R=100(dc−dt)/dc

wheat leaf blight = assay: Leaf blotch control effect on wheat, foliar spray treatment; settings: wettable powder foliar spray 1,000 L/ha, thirty days after inoculation
Experimental: After blow drying the sprayed leaves, the plants were sprinkled and inoculated with wheat leaf blight. Thirty days after inoculation, the morbidity of the wheat to powdery mildew was evaluated according to the criteria shown in Table 3, and the preventative value was calculated using the following equation. When the average morbidity of the sprayed plot was higher than the average morbidity of the unsprayed plot, the preventative value was 0%. Preventative value (%)=(1−(average morbidity of the sprayed plot/average morbidity of the unsprayed plot))×100.

Which “Preventative Value (%)” value (wheat leaf rust; sample conc. 0.8 mg/L) does the source give for `CC1(C)CCC(Cc2ccc(Cl)cc2)C1(O)Cn1cncn1` (stereo not shown) [Metconazole, reference compound] here?
Its value is 34.1%.

And the “Preventative Value (%)” value (wheat leaf rust; sample conc. 3.1 mg/L)?
Its value is 81.1%.

What about the “Antifungal Index” value ([1]; sample conc. 0.31 mg/L) of the same compound?
The value was 1 (<60%).

And the “Antifungal Index” value ([1]; sample conc. 0.63 mg/L)?
The value was 2 (70%-60%).

And the “Antifungal Index” value ([1]; sample conc. 1.25 mg/L)?
Its value is 4 (90%-80%).

What about the “Preventative Value (%)” value (wheat leaf blight; sample conc. 12.5 mg/L) of the same compound?
Its value is 0%.

And the “Preventative Value (%)” value (wheat leaf blight; sample conc. 50 mg/L)?
Its value is 62.5%.
